Values quoted from earlier work, collected in patent US9144554B2, “Topical compositions for use in the prevention and/or treatment of dermatitis” (priority 2011, dated 2015).

Settings: medicaments used to treat dermatitis

Compound | Toxicity
CN(Cc1cnc2nc(N)nc(N)c2n1)c1ccc(C(=O)N[C@@H](CCC(=O)O)C(=O)O)cc1 [methotrexate] | toxic
ivermectin | toxic
